Measured values taken from patent US5308843A, “Method of inhibiting mammalian topoisomerase II and malignant cell growth in mammals, with substituted (S)-3-methyl-7-oxo-2,3-dihydro-7H-pyrido[1,2,3-de][1,4 ]-benzoxazine(and-benzothiazine)-6-carboxylic acids” (Sterling Drug Inc., priority 1990, dated 1994).
Entries after “also recorded” stand apart in the source; their conditions may differ.

What was measured:
P388 leukemia = experiment: In vivo antitumor assay, P388 leukemia (IP); set-up: species or system mice; conditions: for % ILS / Long Term Survivors: P388(IP) 10^6 cells, drug IP
Source text: (§1) In vivo Antitumor Assay Procedure
(§2) Mice: Inbred: C3H/He; and Hybrids: B6D2F1 (C57BL/6 females×DBA/2 males), CD2F1 (Balb/c females×DBA/2 males) and B6C3F1 (C57BL/6×C3H) were bred at Wayne State University from strains obtained from the Frederick Cancer Research Facility, Frederick, Md. or from commercial suppliers.
(§3) Tumors: Murine Tumors: P388 leukemia and the following transplantable solid tumors of mice were used for in vivo testing: B16 melanoma, pancreatic ductal adenocarcinoma No. 03, colon adenocarcinoma No. 38 and mammary ductal adenocarcinoma No. 16/C. All tumors are in the Developmental Therapeutics Program frozen tumor repository, maintained by the Biological Testing Branch, Frederick, Md. Each has a detailed description, code identification number, and list of references at the National Tumor Repository. Tumors were maintained in the mouse strain of origin and were transplanted in the appropriate F1 hybrid (or the strain of origin) for therapy trials. The mice were supplied food and water ad libitum.
(§4) For P388 leukemia and B16 melanoma studies the tumor cells were implanted IP on day zero and treatment was started on day one (also IP). Titered controls were also included to facilitate the calculation of tumor cell kill.
(§5) End Points for Assessing Antitumor Activity: Quantitative end points used to assess antitumor activity included % Increased Life Span (% ILS), Tumor Cell Kill (Log10 kill), and Tumor Growth Inhibition (T/C). Long Term Survivors (45 or 60 day) were excluded from calculations of % ILS and Tumor Cell Kill.
(§6) Endpoints were calculated as follows: [formula] where Dt is the median day of death for treated and Dc is the median day of death for control groups.
(§7) The log10 cell kill was calculated from the following formula: [formula] where T-C is the tumor difference in the median day of death between the treated (T) and the control (C) groups and Td is the tumor doubling time (in days), the latter estimated from the best fit straight line from a log-linear growth plot of the control-group tumors in exponential growth. The conversion of the T-C values to log10 cell kill is possible because the Td for tumors regrowing post-treatment approximated the Td values of the tumors in untreated control mice.

[1] = In vivo antitumor assay, P388 leukemia (IP); set-up: species or system mice; conditions: mouse, in vivo, P388(IP) 10^6 cells, drug IP, read-out: Maximum Tolerated Total Dose
Source text: as §1, §2, §3, §4, §5, §6, §7

[2] = Toxicity observations in mice of the in vivo antitumor trials
Source text: Dose limiting toxicity appeared to be leukopenia, based on small spleen sizes in necropsy of mice dying at lethal dosage levels. […] Host recovery was rapid, with mice regaining their lost body weight within two to five days post nadir (at the highest non-toxic dosage levels).

B16 melanoma = experiment: In vivo antitumor assay, B16 melanoma (IP); set-up: species or system mice
Source text: as §1, §2, §3, §4, §5, §6, §7

[3] = In vivo antitumor assay, B16 melanoma (IP); set-up: species or system mice; conditions: mouse, in vivo; B16(IP) 0.5 ml 10% brie; drug IP; QD1,5,9; read-out: Maximum Tolerated Total Dose
Source text: as §1, §2, §3, §4, §5, §6, §7

[4] = tested on: mammary ductal adenocarcinoma No. 16/C; experiment: In vivo antitumor assay, mammary ductal adenocarcinoma No. 16/C (SC); set-up: species or system mice
Source text: as §1, §2, §3
(§8) Chemotherapy: For pancreatic ductal adenocarcinoma No. 03, colon adenocarcinoma No. 38, and mammary ductal adenocarcinoma No. 16, the following methods were used to help ensure a more uniform tumor burden per mouse (thus reducing the requirement for greater numbers of mice per group), bilateral tumor implants were used. The animals necessary to begin an experiment were pooled, implanted bilaterally s.c. on day zero with 30-60-mg tumor fragments using a 12-gauge trocar, and again pooled before randomization to the various treatment and control groups. Chemotherapy was started within three days after tumor implantation while the number of cells per mouse was relatively small (1×10^7 -1×10^8 cells).
as §5, §6
(§9) T/C Value: Tumors were measured with a caliper once or twice weekly (as needed) until either tumors exceeded 1600 mg or cure was assured. Tumor weights were estimated from two-dimensional measurements: Tumor Weight (mg)=(a×b^2)/2, where a and b are the tumor length and width (mm), respectively. Measurements were carried out simultaneously in both the treatment and control groups. When the control group tumors reached approximately 750-1500 mg in size (median of group), the median tumor weight of each group was determined (including zeros). The T/C value in percent is an indication of antitumor effectiveness. […]. […]

[5] = as above; set-up: species or system mice; conditions: mouse, in vivo; Mam16/C (SC); drug SC; QD1-4; read-out: Maximum Tolerated Total Dose
Source text: as §1, §2, §3, §8, §5, §6, §9

[6] = In vivo antitumor assay, colon adenocarcinoma No. 38 (SC); set-up: species or system mice; conditions: mouse, in vivo; Colon 38 (SC); drug SC; QD3-9; read-out: Maximum Tolerated Total Dose
Source text: as §1, §2, §3, §8, §5, §6, §9

[7] = tested on: colon adenocarcinoma No. 38; experiment: as above; set-up: species or system mice
Source text: as §1, §2, §3, §8, §5, §6, §9

[8] = In vivo antitumor assay, pancreatic ductal adenocarcinoma No. 03 (Panc03, SC); set-up: species or system mice; conditions: mouse, in vivo; Panc03 (SC); drug SC; QD3-9; read-out: Maximum Tolerated Total Dose
Source text: as §1, §2, §3, §8, §5, §6, §9

[9] = tested on: pancreatic ductal adenocarcinoma No. 03; experiment: as above; set-up: species or system mice
Source text: as §1, §2, §3, §8, §5, §6, §9

several tumor systems = experiment: Antitumor activity in mice against several tumor systems (overall statement); format: in vivo
Source text: as §1, §2
as §3, with “libitum. […]” for “libitum.”
End Points for Assessing Antitumor Activity: Quantitative end points used to assess antitumor activity included % Increased Life Span (% ILS), Tumor Cell Kill (Log10 kill), and Tumor Growth Inhibition (T/C). […]

**Q.** For `Cc1cc(-c2c(F)cc3c(=O)c(C(=O)O)cn4c3c2SC[C@@H]4C)cc(C)n1` [Example 5, (S)-10-(2,6-Dimethyl-4-pyridinyl)-9-fluoro-3-methyl-7-oxo-2,3-dihydro-7H-pyrido[1,2,3-de][1,4]benzothiazine-6-carboxylic acid], which “% ILS” value (P388 leukemia; QD1,5,9, 1014 mg/kg total) is on record?
**A.** 90%

**Q.** What about the “Long Term Survivors” value (P388 leukemia; QD1,5,9, 1014 mg/kg total) of the same molecule?
**A.** 0/6

**Q.** What about the “% ILS” value (P388 leukemia; QD1-7, 504 mg/kg total) of the same molecule?
**A.** 92%

**Q.** And the “Long Term Survivors” value (P388 leukemia; QD1-7, 504 mg/kg total)?
**A.** 0/5

**Q.** And the “antitumor activity (in words)” value (P388 leukemia; P388, 90% ILS)?
**A.** excellent activity

**Q.** What about the “log10 tumor cell kill” value (P388 leukemia; P388, equal to 90% ILS) of the same molecule?
**A.** 5.2-7.0 log10

**Q.** What about the MTD ([1]; QD1,5,9, vehicle 5% EtOH, 1% NaHCO3, 0.3% tween40 (pH 8.3)) of the same molecule?
**A.** 1010 mg/kg

**Q.** And the MTD ([1]; QD1-7, vehicle 3% EtOH, 3% NaHCO3, 1% tween40)?
**A.** 504 mg/kg

**Q.** What about the Dose limiting toxicity ([2]; based on small spleen sizes in necropsy of mice dying at lethal dosage levels) of the same molecule?
**A.** leukopenia

**Q.** And the “host recovery (in words)” value ([2]; mouse, in vivo)?
**A.** rapid

**Q.** What about the “host recovery: time to regain lost body weight post nadir” value ([2]; mouse, in vivo) of the same molecule?
**A.** two to five

**Q.** What about the tolerability ([2]; mouse, in vivo) of the same molecule?
**A.** well tolerated with no long delayed toxicity problems

**Q.** What about the “% ILS” value (B16 melanoma; B16(IP), drug IP, QD1,5,9, 1500 mg/kg total) of the same molecule?
**A.** 66%

**Q.** What about the “Long Term Survivors” value (B16 melanoma; B16(IP), drug IP, QD1,5,9, 1500 mg/kg total, footnote 5: Day 60, tumor evident) of the same molecule?
**A.** 1/6

**Q.** What about the “antitumor activity (in words)” value (B16 melanoma; B16 melanoma IP) of the same molecule?
**A.** Day 60; tumor evident; also recorded: good activity

**Q.** What about the “log10 tumor cell kill” value (B16 melanoma; B16 melanoma IP) of the same molecule?
**A.** 2.0 log10

**Q.** And the MTD [3]?
**A.** 1500 mg/kg

**Q.** And the “Long Term Survivors” value ([4]; Mam16/C (SC), drug SC, QD1-4, 263 mg/kg total)?
**A.** 0/5

**Q.** And the “% T/C” value ([4]; Mam16/C (SC), drug SC, QD1-4, at maximum tolerated total dose 263 mg/kg)?
**A.** 15%

**Q.** And the “antitumor activity (in words)” value ([4]; Mammary Adenocarcinoma No. 16/C)?
**A.** clearly active

**Q.** What about the MTD [5] of the same molecule?
**A.** 263 mg/kg

**Q.** What about the MTD [6] of the same molecule?
**A.** 504 mg/kg

**Q.** What about the “Long Term Survivors” value ([7]; Colon 38 (SC), drug SC, QD3-9, 504 mg/kg total, footnote 4: Cure, no tumor evident, day 119) of the same molecule?
**A.** 1/5

**Q.** And the “% T/C” value ([7]; Colon 38 (SC), drug SC, QD3-9, at maximum tolerated total dose 504 mg/kg)?
**A.** 0%

**Q.** What about the “antitumor activity (in words)” value ([7]; Colon Adenocarcinoma 38) of the same molecule?
**A.** Cure; no tumor evident; day 119; also recorded: clearly active; also recorded: highly active

**Q.** And the MTD [8]?
**A.** 781 mg/kg

**Q.** And the “Long Term Survivors” value ([9]; Panc03 (SC), drug SC, QD3-9, 781 mg/kg total)?
**A.** 0/5

**Q.** What about the “% T/C” value ([9]; Panc03 (SC), drug SC, QD3-9, at maximum tolerated total dose 781 mg/kg) of the same molecule?
**A.** 17%

**Q.** What about the “antitumor activity (in words)” value ([9]; Pancreatic Ductal Adenocarcinoma 03) of the same molecule?
**A.** clearly active

**Q.** What about the “antineoplastic activity (in words)” value (several tumor systems) of the same molecule?
**A.** found to possess antineoplastic activity as evidenced by its activity in reducing the size of and curing tumors, and increasing the survival time of the mice
